{
  "source": "patent US10413579B2",
  "about": "“Pharmaceutical composition for preventing or treating asthma comprising Pistacia weinmannifolia J. Poiss. ex Franch extract or fraction thereof” (Korea Research Institute of Bioscience and Biotechnology, priority 2013, dated 2019)",
  "format_in_all_cases": "in vivo, mouse",
  "key": {"[1]": {"test_system": "interleukin-13", "assay": "Interleukin-13 in bronchoalveolar lavage fluid (ELISA)", "details": "30 mg/kg PO, mean±S.E.", "procedure": "(§1) In the present experiment, 6-week-old Balb/c female mice having a body weight of about 20 g in average were used as experimental animals. After 1 week of acclimation, animals showing no abnormal findings on physical examination were used as subjects. 2 mg of aluminium hydroxide (A8222, Sigma, St. Louis, Mo.) and 20 μg of ovalbumin (A5503, Sigma, St. Louis, Mo.) were suspended in 200 μl of phosphate buffer (pH 7.4) and then injected into the peritoneal cavity of mouse for sensitization. On days 21 to 23 after the first intraperitoneal administration of ovalbumin, inhalation challenge was performed for 30 min with 1% ovalbumin using an ultrasonic atomizer. 24 hours after the last antigen administration, airway hyperresponsiveness was measured. 48 hours later, a lethal dose of pentobarbital (Entobal, Hanlim Pharmaceutical Co., Ltd.) was administered, body weight measurement and bronchotomy were performed, and bronchoalveolar lavage was performed with a total 1.2 mL of physiological saline, and then, samples were collected. […] Seven white mice were used for each group. […]\n(§2) Briefly, 100 μl of bronchoalveolar lavage fluid was added to a well plate and allowed to react for 1 hour. […] Absorbance was measured at 450 nm."}, "[2]": {"test_system": "ovalbumin-sensitized asthma animal models", "assay": "Inflammatory cells in bronchoalveolar lavage fluid of ovalbumin-sensitized asthma mice", "details": "30 mg/kg PO", "procedure": "(§3) In the present experiment, 6-week-old Balb/c female mice having a body weight of about 20 g in average were used as experimental animals. After 1 week of acclimation, animals showing no abnormal findings on physical examination were used as subjects. 2 mg of aluminium hydroxide (A8222, Sigma, St. Louis, Mo.) and 20 μg of ovalbumin (A5503, Sigma, St. Louis, Mo.) were suspended in 200 μl of phosphate buffer (pH 7.4) and then injected into the peritoneal cavity of mouse for sensitization. On days 21 to 23 after the first intraperitoneal administration of ovalbumin, inhalation challenge was performed for 30 min with 1% ovalbumin using an ultrasonic atomizer. 24 hours after the last antigen administration, airway hyperresponsiveness was measured. 48 hours later, a lethal dose of pentobarbital (Entobal, Hanlim Pharmaceutical Co., Ltd.) was administered, body weight measurement and bronchotomy were performed, and bronchoalveolar lavage was performed with a total 1.2 mL of physiological saline, and then, samples were collected. […] Seven white mice were used for each group."}, "[3]": {"test_system": "serum IgE", "assay": "Serum IgE in ovalbumin-sensitized asthma mice (immunoenzymatic assay)", "details": "30 mg/kg PO", "procedure": "as §3\n(§4) To measure serum IgE and ovalbumin-specific IgE, an immunoenzymatic assay was used. IgE level was measured using a commercially available kit (Biolegend Ins., California, USA). […] For color development, 3,3′,5,5′-tetramethylbezidine substrate was allowed to react, and the spectroscopic absorbance was measured at 450 nm."}, "[4]": {"test_system": "interleukin-4", "assay": "Interleukin-4 in bronchoalveolar lavage fluid (ELISA)", "details": "30 mg/kg PO, mean±S.E.", "procedure": "as §1, §2"}, "[5]": {"test_system": "interleukin-5", "assay": "Interleukin-5 in bronchoalveolar lavage fluid (ELISA)", "details": "30 mg/kg PO, mean±S.E.", "procedure": "as §1, §2"}, "[6]": {"test_system": "ovalbumin-specific IgE", "assay": "Ovalbumin-specific IgE in serum of ovalbumin-sensitized asthma mice (ELISA)", "details": "30 mg/kg PO, mean±S.E.", "procedure": "as §3, §4"}},
  "data": [
    {"smiles": "CC(C)(O)c1ccccc1CC[C@@H](SCC1(CC(=O)O)CC1)c1cccc(/C=C/c2ccc3ccc(Cl)cc3n2)c1", "note": "[Mon, montelukast]", "values": [
      {"measurement": "IL-13", "setting": "[1]", "result": "65.7 ± 18.86", "unit": "pg/mL"},
      {"measurement": "number of eosinophils in bronchoalveolar lavage fluid", "setting": "[2]; OVA group (74±16.0)×10^5", "result": "36±20.4 ×10^5"},
      {"measurement": "number of total inflammatory cells in bronchoalveolar lavage fluid", "setting": "[2]; OVA group (180±22.2)×10^5", "result": "98±19.3 ×10^5"},
      {"measurement": "serum IgE antibody level", "setting": "[3]", "result": "1.8 ± 0.28", "unit": "µg/mL"},
      {"measurement": "IgE", "setting": "[3]; mean±S.E., Table 1", "result": "1.8 ± 0.28", "unit": "ng/mL"},
      {"measurement": "IL-4", "setting": "[4]", "result": "34.6 ± 6.52", "unit": "pg/mL"},
      {"measurement": "IL-5", "setting": "[5]", "result": "32.4 ± 4.46", "unit": "pg/mL"},
      {"measurement": "OVA-specific IgE", "setting": "[6]", "result": "108 ± 83.0", "unit": "ng/mL"}
    ]}
  ]
}
